This passage reports IC50 results from US12187723B2 (BRISTOL-MYERS SQUIBB COMPANY, priority 2019, dated 2025).

Where only a bound is given, the exact number is not on record here.

The target in one assay is T1, human TLR8 (Homo sapiens, UniProt Q9NR97).
T1 construct: host or cells: HEK-Blue cells
T1 sequence (Q9NR97 27-1041): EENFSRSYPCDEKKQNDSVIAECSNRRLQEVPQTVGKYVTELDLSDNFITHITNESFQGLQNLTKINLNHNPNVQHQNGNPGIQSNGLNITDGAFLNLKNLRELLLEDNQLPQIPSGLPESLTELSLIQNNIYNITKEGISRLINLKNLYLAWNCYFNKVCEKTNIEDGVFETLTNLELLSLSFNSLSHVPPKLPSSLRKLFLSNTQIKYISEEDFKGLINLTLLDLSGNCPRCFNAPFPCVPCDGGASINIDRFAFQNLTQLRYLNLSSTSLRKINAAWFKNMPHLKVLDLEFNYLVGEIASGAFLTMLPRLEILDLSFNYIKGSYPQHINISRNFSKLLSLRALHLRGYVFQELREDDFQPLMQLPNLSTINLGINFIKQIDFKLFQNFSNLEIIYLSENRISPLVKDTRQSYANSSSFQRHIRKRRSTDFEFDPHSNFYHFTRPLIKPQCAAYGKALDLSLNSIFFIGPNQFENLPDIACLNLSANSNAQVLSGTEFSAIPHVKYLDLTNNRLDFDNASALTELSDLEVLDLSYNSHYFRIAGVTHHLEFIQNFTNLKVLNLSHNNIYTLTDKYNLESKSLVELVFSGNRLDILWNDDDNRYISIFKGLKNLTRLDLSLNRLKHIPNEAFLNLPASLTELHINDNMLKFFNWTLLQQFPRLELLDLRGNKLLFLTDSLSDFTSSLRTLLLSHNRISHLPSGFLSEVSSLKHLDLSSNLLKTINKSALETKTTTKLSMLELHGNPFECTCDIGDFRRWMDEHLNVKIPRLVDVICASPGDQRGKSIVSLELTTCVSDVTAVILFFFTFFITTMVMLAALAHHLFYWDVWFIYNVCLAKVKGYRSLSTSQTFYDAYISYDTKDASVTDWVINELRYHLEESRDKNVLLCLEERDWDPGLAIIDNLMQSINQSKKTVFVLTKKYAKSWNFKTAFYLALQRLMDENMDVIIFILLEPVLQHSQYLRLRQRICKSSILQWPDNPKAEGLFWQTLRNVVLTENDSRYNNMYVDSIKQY
In words: TLR8 inhibition reporter assay (HEK-Blue SEAP). It counts as cell-based. As to conditions: HEK-Blue cells overexpressing human TLR8, R848 15.9 μM, 22 hour incubation. As for the experimental part:
(§1) TLR7/8/9 Inhibition Reporter Assays
HEK-Blue™-cells (Invivogen) overexpressing human TLR7, TLR8 or TLR9 receptors were used for screening inhibitors of these receptors using an inducible SEAP (secreted embryonic alkaline phosphatase) reporter gene under the control of the IFN-β minimal promoter fused to five NF-κB and AP-1-binding sites. Briefly, cells are seeded into Greiner 384 well plates (15000 cells per well for TLR7, 20,000 for TLR8 and 25,000 for TLR9) and then treated with test compounds in DMSO to yield a final dose response concentration range of 0.05 nM-50 μM. After a 30 minute compound pre-treatment at room temperature, the cells are then stimulated with a TLR7 ligand (gardiquimod at a final concentration of 7.5 μM), TLR8 ligand (R848 at a final concentration of 15.9 μM) or TLR9 ligand (ODN2006 at a final concentration of 5 nM) to activate NF-κB and AP-1 which induce the production of SEAP. After a 22 hour incubation at 37° C., 5% CO2, SEAP levels are determined with the addition of HEK-Blue™ Detection reagent (Invivogen), a cell culture medium that allows for detection of SEAP, according to manufacturer's specifications. The percent inhibition is determined as the % reduction in the HEK-Blue signal present in wells treated with agonist plus DMSO alone compared to wells treated with a known inhibitor.
A general note: In a reporter assay the amount or activity of a reporter protein is the signal.

The next assay concerns the target T2, human TLR7 (Homo sapiens, UniProt Q9NYK1).
T2 construct: host or cells: HEK-Blue cells
T2 sequence (Q9NYK1 27-1049): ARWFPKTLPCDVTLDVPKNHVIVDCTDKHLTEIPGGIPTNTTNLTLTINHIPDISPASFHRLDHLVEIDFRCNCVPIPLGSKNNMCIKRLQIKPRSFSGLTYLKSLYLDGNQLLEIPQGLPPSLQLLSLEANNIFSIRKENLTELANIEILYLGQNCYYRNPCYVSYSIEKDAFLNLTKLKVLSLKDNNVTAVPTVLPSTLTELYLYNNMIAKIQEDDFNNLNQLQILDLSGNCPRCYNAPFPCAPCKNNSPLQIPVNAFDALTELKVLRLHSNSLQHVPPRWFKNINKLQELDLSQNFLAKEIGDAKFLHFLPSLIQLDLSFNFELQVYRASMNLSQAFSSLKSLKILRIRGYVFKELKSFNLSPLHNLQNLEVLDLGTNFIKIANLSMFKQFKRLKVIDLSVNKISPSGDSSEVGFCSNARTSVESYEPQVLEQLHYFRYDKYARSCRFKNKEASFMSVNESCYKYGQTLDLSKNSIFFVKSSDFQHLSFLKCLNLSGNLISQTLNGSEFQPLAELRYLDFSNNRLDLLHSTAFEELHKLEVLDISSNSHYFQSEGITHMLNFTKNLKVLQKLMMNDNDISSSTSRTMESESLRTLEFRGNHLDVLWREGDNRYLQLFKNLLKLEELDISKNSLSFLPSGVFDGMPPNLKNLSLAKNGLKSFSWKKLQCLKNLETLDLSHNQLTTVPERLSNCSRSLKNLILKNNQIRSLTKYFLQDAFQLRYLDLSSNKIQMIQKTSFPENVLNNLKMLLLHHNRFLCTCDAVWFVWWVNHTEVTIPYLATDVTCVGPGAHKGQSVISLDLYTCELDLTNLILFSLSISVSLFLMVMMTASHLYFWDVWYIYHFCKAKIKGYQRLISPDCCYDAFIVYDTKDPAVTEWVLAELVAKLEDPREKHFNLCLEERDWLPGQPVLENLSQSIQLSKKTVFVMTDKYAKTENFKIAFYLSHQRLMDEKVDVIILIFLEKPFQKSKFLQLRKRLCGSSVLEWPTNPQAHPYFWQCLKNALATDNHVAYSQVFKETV
In words: TLR7 inhibition reporter assay (HEK-Blue SEAP). It counts as cell-based. As to conditions: HEK-Blue cells overexpressing human TLR7, gardiquimod 7.5 μM, 22 hour incubation. On the procedure:
as §1
Briefly, cells are seeded into Greiner 384 well plates (15000 cells per well for TLR7, 20,000 for TLR8 and 25,000 for TLR9) and then treated with test compounds in DMSO to yield a final dose response concentration range of 0.05 nM-50 μM. […] After a 22 hour incubation at 37° C., 5% CO2, SEAP levels are determined with the addition of HEK-Blue™ Detection reagent (Invivogen), a cell culture medium that allows for detection of SEAP, according to manufacturer's specifications. The percent inhibition is determined as the % reduction in the HEK-Blue signal present in wells treated with agonist plus DMSO alone compared to wells treated with a known inhibitor.

As for `CCC(CC)CN1CCC[C@@H](n2c(=O)[nH]c3cc(-c4cn5ncnc5c(C)c4C)c(C(C)C)cc32)C1` [Example 151, (R)-5-(7,8-dimethyl-[1,2,4]triazolo[1,5-a]pyridin-6-yl)-1-(1-(2-ethylbutyl)piperidin-3-yl)-6-isopropyl-1,3-dihydro-2H-benzo[d]imidazol-2-one], the values for the half-maximal inhibitory concentration (IC50) against human TLR8 and against human TLR7 were 21.7 nM and 11 nM, respectively.

Take `COc1cc(-c2cc3[nH]c(=O)n([C@@H]4CCCN(CC5CCOCC5)C4)c3cc2C(F)(F)F)cn2ncnc12` [Example 112, (R)-5-(8-methoxy-[1,2,4]triazolo[1,5-a]pyridin-6-yl)-1-(1-((tetrahydro-2H-pyran-4-yl)methyl)piperidin-3-yl)-6-(trifluoromethyl)-1,3-dihydro-2H-benzo[d]imidazol-2-one]: the figures for the half-inhibitory concentration (IC50) against human TLR8 and on human TLR7 were 20.3 nM and 30.8 nM, respectively.

On to `COc1cc(-c2cc3[nH]c(=O)n([C@H]4CCCN(CCC(C)C)C4)c3cc2C(C)C)cn2ncnc12` [Example 132, (S)-1-(1-isopentylpiperidin-3-yl)-6-isopropyl-5-(8-methoxy-[1,2,4]triazolo[1,5-a]pyridin-6-yl)-1,3-dihydro-2H-benzo[d]imidazol-2-one], for which the IC50 (as a rule, the concentration needed to halve the response being measured) against human TLR8 turned out to be 10.1 nM; at human TLR7, 18.3 nM.

For `CCN1CCC(n2c(=O)[nH]c3cc(-c4cc(C)c5ncnn5c4)c(C)cc32)CC1` [Example 6, 1-(1-ethylpiperidin-4-yl)-6-methyl-5-(8-methyl-[1,2,4]triazolo[1,5-a]pyridin-6-yl)-1,3-dihydro-2H-benzo[d]imidazol-2-one], the 50% inhibitory concentration (IC50) on human TLR8 was 46.3 nM; at human TLR7 it was 38.7 nM.

Regarding `COc1cc(-c2cc3[nH]c(=O)n([C@@H]4CCCN(CC5CC5)C4)c3cc2C(C)C)cn2ncnc12` [Example 142, (R)-1-(1-(cyclopropylmethyl)piperidin-3-yl)-6-isopropyl-5-(8-methoxy-[1,2,4]triazolo[1,5-a]pyridin-6-yl)-1,3-dihydro-2H-benzo[d]imidazol-2-one], the figures for the IC50 against human TLR8 and against human TLR7 were 2.2 nM and 0.64 nM, respectively.

In the case of `COc1cc(-c2cc3[nH]c(=O)n([C@@H]4CCCN(CC(C)(C)C)C4)c3cc2C(F)(F)F)cn2ncnc12` [Example 116, (R)-5-(8-methoxy-[1,2,4]triazolo[1,5-a]pyridin-6-yl)-1-(1-neopentylpiperidin-3-yl)-6-(trifluoromethyl)-1,3-dihydro-2H-benzo[d]imidazol-2-one], the figures for the 50% inhibitory concentration (IC50) against human TLR8 and on human TLR7 were 57.8 nM and 44.1 nM, respectively.

As to `COc1cc(-c2cc3[nH]c(=O)n([C@H]4CCCN(C)C4)c3cc2C(C)C)cn2ncnc12` [Example 119, (S)-6-isopropyl-5-(8-methoxy-[1,2,4]triazolo[1,5-a]pyridin-6-yl)-1-(1-methylpiperidin-3-yl)-1,3-dihydro-2H-benzo[d]imidazol-2-one], the figures for the IC50 on human TLR8 and on human TLR7 were 2.37 nM and 31.8 nM, respectively.

For the compound `CCN1CCC[C@@H](n2c(=O)[nH]c3cc(-c4cc(OC)c5ncnn5c4)c(C(C)C)cc32)C1` [Example 138, (R)-1-(1-ethylpiperidin-3-yl)-6-isopropyl-5-(8-methoxy-[1,2,4]triazolo[1,5-a]pyridin-6-yl)-1,3-dihydro-2H-benzo[d]imidazol-2-one], the results for the 50% inhibitory concentration (IC50) against human TLR8 and against human TLR7 were 2.64 nM and 2.73 nM, respectively.

As for `COc1cc(-c2cc3[nH]c(=O)n([C@@H]4CCCN(CC5CCOCC5)C4)c3cc2C(C)C)cn2ncnc12` [Example 139, (R)-6-isopropyl-5-(8-methoxy-[1,2,4]triazolo[1,5-a]pyridin-6-yl)-1-(1-((tetrahydro-2H-pyran-4-yl)methyl)piperidin-3-yl)-1,3-dihydro-2H-benzo[d]imidazol-2-one], the IC50 stood at 1.27 nM against human TLR8 and 0.76 nM against human TLR7.

As for `COc1cc(-c2cc3[nH]c(=O)n(C4CCCN(C(=O)CN(C)C)C4)c3cc2C)cn2ncnc12` (stereo not shown) [Example 105, 1-(1-(dimethylglycyl)piperidin-3-yl)-5-(8-methoxy-[1,2,4]triazolo[1,5-a]pyridin-6-yl)-6-methyl-1,3-dihydro-2H-benzo[d]imidazol-2-one], the IC50 on human TLR8 came out at 318 nM; at human TLR7, 399 nM.

On to `COc1cc(-c2cc3[nH]c(=O)n(C4CCN(C5CCOCC5)CC4)c3cc2C(C)C)cn2ncnc12` [Example 158, 6-isopropyl-5-(8-methoxy-[1,2,4]triazolo[1,5-a]pyridin-6-yl)-1-(1-(tetrahydro-2H-pyran-4-yl)piperidin-4-yl)-1,3-dihydro-2H-benzo[d]imidazol-2-one], for which the IC50 against human TLR8 was determined as 16.2 nM; at human TLR7, 11.2 nM.

In the case of `Cc1cc(-c2ccc3c(c2)[nH]c(=O)n3C2CCN(C(C)C)CC2)cn2ncnc12` [Example 5, 1-(1-isopropylpiperidin-4-yl)-5-(8-methyl-[1,2,4]triazolo[1,5-a]pyridin-6-yl)-1,3-dihydro-2H-benzo[d]imidazol-2-one], the IC50 at human TLR8 was above 3130 nM; on human TLR7, 1550 nM.

As to `COc1cc(-c2cc3[nH]c(=O)n([C@H]4CCCN(CC5CCOC5)C4)c3cc2C(C)C)cn2ncnc12` (stereo partly drawn) [Example 126, 6-isopropyl-5-(8-methoxy-[1,2,4]triazolo[1,5-a]pyridin-6-yl)-1-((3S)-1-((tetrahydrofuran-3-yl)methyl)piperidin-3-yl)-1,3-dihydro-2H-benzo[d]imidazol-2-one], the 50% inhibitory concentration (IC50) at human TLR8 was 3.64 nM; against human TLR7, 81.8 nM.

For `COc1cc(-c2cc3[nH]c(=O)n([C@H]4CCCN(CC5CCC5)C4)c3cc2C(C)C)cn2ncnc12` [Example 133, (S)-1-(1-(cyclobutylmethyl)piperidin-3-yl)-6-isopropyl-5-(8-methoxy-[1,2,4]triazolo[1,5-a]pyridin-6-yl)-1,3-dihydro-2H-benzo[d]imidazol-2-one], the concentration for half-maximal inhibition (IC50) is 5.9 nM against human TLR8 and 17.3 nM against human TLR7.
